Laboratory results as given in patent publication EP0554004A2, “Cephem compounds and antibacterial agents” (KATAYAMA SEIYAKUSYO CO. Ltd., priority 1992, dated 1993).
Converted amounts (≈) assume the structure as drawn.

Tests used:
Experiment in all cases: MIC against standard strains (Test Example 1)
Assay type in all cases: cell-based
[1] = test system: Serratia marcescens IAM 1184; conditions: IAM1184, Muller-Hinton agar, 37°C overnight
Procedure, shortened: (§1)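 Overnight 37°C Mueller-Hinton broth cultures → 1 x 10^6 CFU/ml inoculum → Mueller-Hinton agar plates with compound → overnight, 37°C → MIC = minimum concentration with no growth.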

[2] = test system: Escherichia coli CSH2 (RK1)
Procedure, shortened: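 We inoculate Mueller-Hinton agar carrying a single test agent with 1 x 10^6 CFU/ml bacteria from overnight broth culture, incubate overnight at 37°C, and report the lowest concentration blocking growth.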

[3] = test system: Morganella morganii IFO 3848; conditions: IFO3848, Muller-Hinton agar, 37°C overnight
Procedure, shortened: as §1

[4] = test system: Micrococcus luteus ATCC 9341; conditions: ATCC9341, Muller-Hinton agar, 37°C overnight
Procedure, shortened: as §1

[5] = test system: Klebsiella pneumoniae IFO 3317; conditions: IFO3317, Muller-Hinton agar, 37°C overnight
Procedure, shortened: as §1

[6] = test system: Klebsiella pneumoniae No. 42; conditions: Muller-Hinton agar, 37°C overnight
Procedure, shortened: as §1

[7] = test system: Staphylococcus aureus Smith; conditions: Muller-Hinton agar, 37°C overnight
Procedure, shortened: as §1

[8] = test system: Pseudomonas aeruginosa NCTC 10490; conditions: NCTC10490, Muller-Hinton agar, 37°C overnight
Procedure, shortened: as §1

[9] = test system: Staphylococcus aureus 195; conditions: Staphylococcus aureus 195 (MRSA); Muller-Hinton agar, 37°C overnight
Procedure, shortened: as §1

[10] = test system: Proteus vulgalis OX-19; conditions: Muller-Hinton agar, 37°C overnight
Procedure, shortened: as §1

[11] = test system: Escherichia coli NIHJ JC-2; conditions: NIHJJC2, Muller-Hinton agar, 37°C overnight
Procedure, shortened: as §1

[12] = test system: Staphylococcus aureus 209P JC-1; conditions: Muller-Hinton agar, 37°C overnight
Procedure, shortened: as §1

[13] = test system: Proteus mirabilis IFO 3849; conditions: IFO3849, Muller-Hinton agar, 37°C overnight
Procedure, shortened: as §1

[14] = test system: Enterobacter cloacae ATCC 13407; conditions: ATCC13407, Muller-Hinton agar, 37°C overnight
Procedure, shortened: as §1

SMILES: CO[C@@]1(NC(=O)CSC(F)F)C(=O)N2C(C(=O)O)=C(CSc3nnnn3CCO)CO[C@@H]21 [FMOX, flomoxef, reference compound]
- MIC [1]: 0.2 µg/mL (≈ 0.403 µM)
- MIC [2]: 0.05 µg/mL (≈ 0.101 µM)
- MIC [3]: 0.39 µg/mL (≈ 0.786 µM)
- MIC [4]: 0.2 µg/mL (≈ 0.403 µM)
- MIC [5]: 0.05 µg/mL (≈ 0.101 µM)
- MIC [6]: 0.1 µg/mL (≈ 0.201 µM)
- MIC [7]: 0.39 µg/mL (≈ 0.786 µM)
- MIC [8]: > 100 µg/mL
- MIC [9]: 6.25 µg/mL (≈ 12.6 µM)
- MIC [10]: 0.39 µg/mL (≈ 0.786 µM)
- MIC [11]: 0.05 µg/mL (≈ 0.101 µM)
- MIC [12]: 0.39 µg/mL (≈ 0.786 µM)
- MIC [13]: 0.2 µg/mL (≈ 0.403 µM)
- MIC [14]: 25 µg/mL (≈ 50.4 µM)
